# In patent US20110183980A1, “O-BENZYL NICOTINAMIDE ANALOGS AS MGLUR5 POSITIVE ALLOSTERIC MODULATORS” (priority 2009, published 2011):
# Target: T1, rat mGluR5 (Rattus norvegicus, UniProt P31424)
# T1 construct: expressed in transfected cells; host or cells: human embryonic kidney (HEK) cells
# Assay: Potentiation of glutamate response, Ca2+ fluorescence (FDSS) in HEK cells transfected with rat mGluR5
# Type: cell-based
# Settings: Table 1; potentiation of mGluR5 response to glutamate; read-out: EC50
# Description: Human embryonic kidney (HEK) cells transfected with rat mGluR5 were plated in clear bottom assay plates for assay in a Functional Drug Screening System (FDSS). The cells were loaded with a Ca^2+-sensitive fluorescent dye (e.g., Fluo-4), and the plates were washed and placed in the FDSS instrument. After establishment of a fluorescence baseline for twelve seconds, the compounds of the present invention were added to the cells, and the response in cells was measured. Five minutes later, an mGluR5 agonist (e.g., glutamate, 3,5-dihydroxyphenylglycine, or quisqualate) was added to the cells, and the response of the cells was measured. Potentiation of the agonist response of mGluR5 by the compounds in the present invention was observed as an increase in response to non-maximal concentrations of agonist (here, glutamate) in the presence of compound compared to the response to agonist in the absence of compound.
# The above described assay operated in two modes. In the first mode, a range of concentrations of the present compounds were added to cells, followed by a single fixed concentration of agonist. If a compound acted as a potentiator, an EC50 value for potentiation and a maximum extent of potentiation by the compound at this concentration of agonist was determined by non-linear curve fitting. In the second mode, several fixed concentrations of the present compounds were added to various wells on a plate, followed by a range of concentrations of agonist for each concentration of present compound; the EC50 values for the agonist at each concentration of compound were determined by non-linear curve fitting. A decrease in the EC50 value of the agonist with increasing concentrations of the present compounds (a leftward shift of the agonist concentration-response curve) is an indication of the degree of mGluR5 potentiation at a given concentration of the present compound. An increase in the EC50 value of the agonist with increasing concentrations of the present compounds (a rightward shift of the agonist concentration-response curve) is an indication of the degree of mGluR5 antagonism at a given concentration of the present compound. The second mode also indicates whether the present compounds also affect the maximum response to mGluR5 to agonists.
# T1 sequence (P31424 21-1203): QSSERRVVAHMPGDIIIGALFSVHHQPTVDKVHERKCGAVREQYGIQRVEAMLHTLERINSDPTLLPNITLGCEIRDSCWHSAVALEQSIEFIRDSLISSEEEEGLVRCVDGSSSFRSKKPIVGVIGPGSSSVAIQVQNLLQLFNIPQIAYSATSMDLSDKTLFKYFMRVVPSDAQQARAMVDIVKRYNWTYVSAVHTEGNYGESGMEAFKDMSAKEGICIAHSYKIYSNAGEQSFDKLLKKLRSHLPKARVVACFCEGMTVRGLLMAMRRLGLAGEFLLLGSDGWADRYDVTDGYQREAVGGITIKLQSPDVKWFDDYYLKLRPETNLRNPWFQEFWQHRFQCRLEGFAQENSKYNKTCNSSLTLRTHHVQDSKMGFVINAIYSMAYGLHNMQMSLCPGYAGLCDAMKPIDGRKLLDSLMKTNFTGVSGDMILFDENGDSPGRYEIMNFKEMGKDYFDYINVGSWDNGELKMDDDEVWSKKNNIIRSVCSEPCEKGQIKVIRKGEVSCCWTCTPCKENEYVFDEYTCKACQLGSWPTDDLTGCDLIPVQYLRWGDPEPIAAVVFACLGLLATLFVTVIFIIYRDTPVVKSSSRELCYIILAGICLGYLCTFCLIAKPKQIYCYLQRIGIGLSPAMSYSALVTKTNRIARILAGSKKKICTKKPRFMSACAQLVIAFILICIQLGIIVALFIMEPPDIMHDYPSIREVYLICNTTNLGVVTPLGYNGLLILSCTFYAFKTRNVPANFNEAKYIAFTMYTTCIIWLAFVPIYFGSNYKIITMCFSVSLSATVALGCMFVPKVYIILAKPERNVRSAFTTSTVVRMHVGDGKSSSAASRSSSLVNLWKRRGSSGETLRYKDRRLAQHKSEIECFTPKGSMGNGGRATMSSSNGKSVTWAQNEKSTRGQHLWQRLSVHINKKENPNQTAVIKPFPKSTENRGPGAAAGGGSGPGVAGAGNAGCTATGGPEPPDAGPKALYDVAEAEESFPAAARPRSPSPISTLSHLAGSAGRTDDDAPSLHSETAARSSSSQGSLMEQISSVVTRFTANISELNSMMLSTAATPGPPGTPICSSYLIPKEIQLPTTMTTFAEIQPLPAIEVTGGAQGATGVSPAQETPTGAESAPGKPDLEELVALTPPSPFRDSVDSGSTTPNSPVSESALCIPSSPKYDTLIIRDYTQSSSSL
row,EC50 [nM],SMILES
1,410,O=C(Nc1ccccn1)c1ccc(OCc2ccccc2)nc1 [Example 1.2a.4]
2,140,O=C(Nc1ccc(F)cc1F)c1ccc(OCc2ccccc2)nc1 [Example 1.2a.5]
3,230,CC(C)(C)NC(=O)c1ccc(OCc2ccccc2)nc1 [Example 1.2a.6]
4,450,O=C(NCC1CC1)c1ccc(OCc2ccccc2)nc1 [Example 1.2a.7]
5,92,CC(C)(C)CCNC(=O)c1ccc(OCc2ccccc2)nc1 [Example 1.2a.8]
6,340,O=C(NC1CCC1)c1ccc(OCc2ccccc2)nc1 [Example 1.2a.9]
7,3700,O=C(c1ccc(OCc2ccccc2)nc1)N1CCC1 [Example 1.2a.10]
8,280,O=C(Nc1ccc(F)cn1)c1ccc(OCc2ccccc2)nc1 [Example 1.2a.11]
9,3400,O=C(NCc1ccccn1)c1ccc(OCc2ccccc2)nc1 [Example 1.2a.12]
10,1100,O=C(Nc1ccncn1)c1ccc(OCc2ccccc2)nc1 [Example 1.2a.13]
11,380,O=C(Nc1ccccc1)c1ccc(OCc2ccccc2)nc1 [Example 1.2a.14]
12,310,O=C(Nc1ccccc1F)c1ccc(OCc2ccccc2)nc1 [Example 1.2a.15]
13,530,O=C(Nc1cccc(F)c1)c1ccc(OCc2ccccc2)nc1 [Example 1.2a.16]
14,340,O=C(Nc1ccc(F)cc1)c1ccc(OCc2ccccc2)nc1 [Example 1.2a.17]
15,520,O=C(Nc1nccs1)c1ccc(OCc2ccccc2)nc1 [Example 1.2a.18]
16,40,C[C@@H](NC(=O)c1ccc(OCc2ccccc2)nc1)C1CCCCC1 [Example 1.2a.19]

# Same assay, conditions: Table 2; potentiation of mGluR5 response to glutamate; read-out: EC50
row,EC50 [nM],SMILES
1,2.2,C[C@@H](NC(=O)c1ccc(OCc2cccc(F)c2)nc1)C(C)(C)C
2,6.6,C[C@@H](NC(=O)c1ccc(OCc2cccc(F)c2)nc1)C1CCC1
3,21,CC(C)[C@@H](C)NC(=O)c1ccc(OCc2cccc(F)c2)nc1
4,36,CC1CCCCC1NC(=O)c1ccc(OCc2ccccc2)nc1 (centres unmarked)
5,39,O=C(NC1C2CC3CC(C2)CC1C3)c1ccc(OCc2ccccc2)nc1 (centres unmarked)
6,100,O=C(N[C@@H](C1CC1)C(F)(F)F)c1ccc(OCc2cccc(F)c2)nc1
7,120,COc1cccc(COc2ccc(C(=O)N[C@H](C)C(C)(C)C)cn2)c1
8,130,O=C(NCC1CCC1)c1ccc(OCc2ccccc2)nc1
9,130,Cc1cc(OCc2cccc(F)c2)ncc1C(=O)N[C@H](C)C1CCCCC1
10,150,C[C@@H](NC(=O)c1ccc(OCc2cccc(F)c2)nc1)C(C)(C)O
11,180,O=C(NC12CC3CC(CC(C3)C1)C2)c1ccc(OCc2ccccc2)nc1
12,180,O=C(NC1CCCC1)c1ccc(OCc2ccccc2)nc1
13,300,O=C(NC(C1CC1)C1CC1)c1ccc(OCc2cccc(F)c2)nc1
14,310,C[C@@H](NC(=O)c1ccc(OCc2cccc(F)c2)nc1)C1CCOCC1
15,370,C[C@@H](NC(=O)c1ccc(OCc2cccc(F)c2)nc1Cl)C(C)(C)C
16,490,Cc1cc(C(=O)N[C@H](C)C2CCCCC2)cnc1OCc1cccc(F)c1
17,490,Cc1cc(OCc2ccncc2)ncc1C(=O)Nc1ccc(F)cc1F
18,520,O=C(Nc1ccccc1O)c1ccc(OCc2ccccc2)nc1
19,570,C[C@@H](NC(=O)c1ccc(OCc2ccncc2)nc1)C(C)(C)C
20,610,Cc1cc(OCc2ccncc2)ncc1C(=O)N[C@H](C)C1CCCCC1
21,610,C[C@H](NC(=O)c1ccc(OCc2cccc(F)c2)nc1)C(C)(C)O
22,660,CC(NC(=O)c1ccc(OCc2cccc(F)c2)nc1)C(C)(C)O (centres unmarked)
23,680,Cc1cc(C(=O)Nc2ccc(F)cc2F)cnc1OCc1ccncc1
24,690,Cc1cc(OCc2cccc(F)c2)ncc1C(=O)N[C@H](C)C(C)(C)C
25,920,Cc1cc(OCc2cccc(F)c2)ncc1C(=O)Nc1ccc(F)cc1F

row,EC50 [nM],SMILES
1,960,Cc1cc(OCc2cccc(F)c2)ncc1C(=O)NCCC(C)(C)C
2,1000,CC(NC(=O)c1ccc(OCc2cccc(F)c2)nc1)C(C)(C)CO (centres unmarked)
3,1100,CC(C)(C)CC(C)(C)NC(=O)c1ccc(OCc2cccc(F)c2)nc1
4,1200,C[C@@H](NC(=O)c1cnc(OCc2cccc(F)c2)cc1C(F)(F)F)C(C)(C)C
5,1300,Cc1cc(C(=O)NCCC(C)(C)C)cnc1OCc1cccc(F)c1
6,1300,CC[C@@H](C)NC(=O)c1ccc(OCc2cccc(F)c2)nc1
7,1700,C[C@@H](NC(=O)c1ccc(OCc2cccc(F)c2)nc1)C1CCOC(C)(C)C1 (some centres unmarked)
8,1700,Cc1cc(OCc2ccncc2)ncc1C(=O)NCCC(C)(C)C
9,1800,O=C(NC1CC(O)(C(F)(F)F)C1)c1ccc(OCc2cccc(F)c2)nc1 (centres unmarked)
10,1900,C[C@@H](NC(=O)c1cnc(OCc2ccncc2)c(C#N)c1)C1CCCCC1
11,1900,COc1cc(C(=O)NCCC(C)(C)C)cnc1OCc1cccc(F)c1
12,1900,COC[C@@H](NC(=O)c1ccc(OCc2cccc(F)c2)nc1)C(C)(C)C
13,2800,O=C(N[C@H]1CCCC[C@@H]1O)c1ccc(OCc2ccccc2)nc1
14,3000,COCC(C)NC(=O)c1ccc(OCc2cccc(F)c2)nc1 (centres unmarked)
15,3200,CC(C)(C)[C@@H](CO)NC(=O)c1ccc(OCc2cccc(F)c2)nc1
16,3400,COc1ccccc1NC(=O)c1ccc(OCc2ccccc2)nc1
17,3500,COc1ccc(F)cc1COc1ccc(C(=O)N[C@H](C)C(C)(C)C)cn1
18,3600,C[C@@H](NC(=O)c1cnc(OCc2ccncc2)c(Br)c1)C1CCCCC1
19,3600,Cc1cc(C(=O)N[C@H](C)C2CCCCC2)cnc1OCc1ccncc1
20,3700,CC(NC(=O)c1ccc(OCc2cccc(F)c2)nc1)C1CCCOC1 (centres unmarked)
21,3900,CC(C)(C)CCNC(=O)c1cnc(OCc2cccc(F)c2)c(C#N)c1
22,3900,CC(C)(C)CCNC(=O)c1cnc(OCc2ccncc2)c(Br)c1
23,3900,C[C@@H](NC(=O)c1cnc(OCc2ccncc2)cc1C(F)(F)F)C(C)(C)C
24,4200,CC(COC(C)(C)C)NC(=O)c1ccc(OCc2cccc(F)c2)nc1 (centres unmarked)
25,4600,COc1ccc(COc2ccc(C(=O)N[C@H](C)C(C)(C)C)cn2)cc1F

row,EC50 [nM],SMILES
1,5100,COc1cc(F)cc(COc2ccc(C(=O)N[C@H](C)C(C)(C)C)cn2)c1
2,5200,COc1c(F)cccc1COc1ccc(C(=O)N[C@H](C)C(C)(C)C)cn1
3,5300,Cc1cc(C(=O)NCCC(C)(C)C)cnc1OCc1ccncc1
4,5400,COc1ccc(COc2ccc(C(=O)N[C@H](C)C(C)(C)C)cn2)cc1
5,> 10000,CC(C)(C)CCNC(=O)c1ccc(OCc2cc(F)cc(Br)c2)nc1
6,> 10000,Cc1cc(C(=O)Nc2ccc(F)cc2F)cnc1OCc1cccc(F)c1
7,> 10000,C[C@@H](NC(=O)c1cnc(OCc2ccncc2)c(C(F)(F)F)c1)C1CCCCC1
8,> 10000,CC(C)(C)CCNC(=O)c1cnc(OCc2ccncc2)c(C#N)c1
9,> 10000,C[C@@H](NC(=O)c1cnc(OCc2cccc(F)c2)c(C(F)(F)F)c1)C1CCCCC1
10,> 10000,COc1nc(OCc2cccc(F)c2)ccc1C(=O)NCCC(C)(C)C
11,> 10000,COc1nc(OCc2cccc(F)c2)ccc1C(=O)N[C@H](C)C1CCCCC1
12,> 10000,C[C@H](CN1CCC(F)(F)C1)NC(=O)c1ccc(OCc2cccc(F)c2)nc1
13,> 10000,C[C@H](CN1CCC(C(F)(F)F)CC1)NC(=O)c1ccc(OCc2cccc(F)c2)nc1
14,> 10000,COc1ccccc1COc1ccc(C(=O)N[C@H](C)C(C)(C)C)cn1
15,> 10000,CC(NC(=O)c1ccc(OCc2cccc(F)c2)nc1)C1CCCCO1 (centres unmarked)
16,> 10000,O=C(NC(c1ccccn1)C(F)(F)F)c1ccc(OCc2cccc(F)c2)nc1 (centres unmarked)
17,> 10000,CC1(CCNC(=O)c2ccc(OCc3cccc(F)c3)nc2)COC1
18,> 10000,CC(C)(C)OCCNC(=O)c1ccc(OCc2cccc(F)c2)nc1
19,> 10000,CC(Oc1ccc(C(=O)N[C@H](C)C(C)(C)C)cn1)c1cccc(F)c1 (some centres unmarked)
20,> 10000,CC1(O)CC(NC(=O)c2ccc(OCc3cccc(F)c3)nc2)C1 (centres unmarked)
21,> 10000,C[C@]1(O)CCC[C@@H]1NC(=O)c1ccc(OCc2cccc(F)c2)nc1
22,> 10000,C[C@@H](NC(=O)c1ccc(OCc2cccc(F)c2)[nH]c1=O)C(C)(C)C
23,> 10000,C[C@H](NC(=O)c1ccc(OCc2cccc(F)c2)nc1Cl)C(C)(C)C

# Same assay, conditions: mGluR5 expressing cell line
row,Glu max [%],SMILES
1,91,"C[C@@H](NC(=O)c1ccc(OCc2ccccc2)nc1)C1CCCCC1 [Example 1.2a.2, (R)-6-(Benzyloxy)-N-(1-cyclohexylethyl)nicotinamide]"

# Same assay, conditions: mGluR5 expressing cell line, potentiation; read-out: EC50
row,EC50 [nM],SMILES
1,40,"C[C@@H](NC(=O)c1ccc(OCc2ccccc2)nc1)C1CCCCC1 [Example 1.2a.2, (R)-6-(Benzyloxy)-N-(1-cyclohexylethyl)nicotinamide]"

# Same assay, conditions: read-out: EC50 as an mGluR5 potentiator
row,EC50 [nM],SMILES
1,> 10000,C[C@H](NC(=O)c1ccc(OCc2ccccc2)nc1)C1CCCCC1 [(S)-6-(benzyloxy)-N-(1-cyclohexylethyl)nicotinamide]
